The values that follow come from patent US11578051B2, “Thiophene carboxamide derivative and plant disease control agent comprising same” (KOREA RESEARCH INSTITUTE OF CHEMICAL TECHNOLOGY, priority 2018, dated 2023).

Assay type in all cases: in vivo
In test [1] the test system is cucumber powdery mildew pathogen (Sphaerotheca fusca). In words: Cucumber powdery mildew control effect test. The settings on record: treatment concentration 10 ppm, as in Experimental Example 3. The method, then:
A predetermined amount of the present compound corresponding to the test concentration was dissolved in 10% acetone and then was sprayed to foliage in a single leafy cucumber (variety: Baekdadagi) grown in a circular pot (6×7 cm, diameter×height). One day after application, the Cucumber plants were inoculated by spraying a spore suspension prepared with spores obtained from cucumber leaves infected with cucumber powdery mildew pathogen (Sphaerotheca fusca). After an incubation period of 1 day at 20° C. humid conditions, the plants were kept in a chamber for 12 days at a constant temperature and humidity under constant light conditions. After 13 days of the compound treatment, the disease incidence was assessed according to equation (1) of Experimental Example 1, and the control value was determined according to the criteria of Experimental Example 1. Compound No. 1 and the following four compounds as a comparative control compound were evaluated for controlling cucumber powdery mildew as described in Experimental Example 3.

Test [2] concerns rice sheath blight pathogen (Rhizoctonia solani). Description: Rice sheath blight control effect test. The settings on record: rice (Chucheongbyeo), foliar spray, active ingredient 200 ppm, spraying dose 30 mL, assessed 5 days after treatment. The method, then: A predetermined amount of the present compound corresponding to the test concentration was dissolved in 10% acetone and then was sprayed to foliage in the 5-leaf stage rice (variety: Chucheongbyeo) grown in a circular pot (6×7 cm, diameter×height). One day after application, the rice plants were inoculated by spraying a mycelial suspension of a culture of rice sheath blight pathogen (Rhizoctonia solani) obtained by culturing in a rice bran culture medium and incubated to induce disease development for 5 days under a humid condition at 30° C. After 5 days of the compound treatment, the disease incidence was assessed according to the equation (1) of Experimental Example 1, and the control value was determined according to the criteria of Experimental Example 1.

In test [3] the test system is cucumber sclerotinia pathogen (Sclerotinia sclerotiorum). In words: Cucumber sclerotinia disease control effect test. The note with it: cucumber (Baekdadagi), foliar spray, active ingredient 200 ppm, spraying dose 30 mL, assessed 4 days after treatment. The method, then: A predetermined amount of the present compound corresponding to the test concentration was dissolved in 10% acetone and then was sprayed to foliage in a single leafy cucumber (cultivar: Baekdadagi) grown in a circular pot (6×7 cm, diameter×height). One day after application, the Cucumber plants were inoculated by spraying a mycelial suspension of a liquid culture of cucumber sclerotinia pathogen (Sclerotinia sclerotiorum) and incubated for 4 days under constant light conditions and high humidity conditions at 25° C. to induce disease development. Four days after the compound treatment, the disease incidence was assessed according to equation (1) of Experimental Example 1, and the control value was determined according to the criteria of Experimental Example 1.

`CON=Cc1ccc(-c2ccccc2NC(=O)c2cn(C)nc2C(F)F)cc1` [Comparative compound A, 3-(difluoromethyl)-N-(4′-((methoxyimino)methyl)-[1,1′-biphenyl]-2-yl)-1-methyl-1H-pyrazole-4-carboxamide]: the “Activity (control value criterion)” value in test [1] is given as 0 (less than 9% control value).
The same measure, in the same setting: the figure for `CON=Cc1ccc(-c2ccccc2NC(=O)c2sccc2C)cc1` [Comparative compound B, N-(4′-((methoxyimino)methyl)-[1,1′-biphenyl]-2-yl)-3-methylthiophene-2-carboxamide] is 1 (Control value 10-29%); for `CON=Cc1ccc(-c2ccccc2NC(=O)c2cn(C)nc2C(F)F)cc1F` [Comparative compound C, 3-(difluoromethyl)-N-(3′-fluoro-4′-((methoxyimino)methyl)-[1,1′-biphenyl]-2-yl)-1-methyl-1H-pyrazole-4-carboxamide] it is 0 (less than 9% control value).
On the same count and under the same terms, the result for `CON=Cc1c(F)cc(-c2ccccc2NC(=O)c2c(C(F)F)nn(C)c2Cl)cc1F` [Comparative compound D, 5-chloro-N-(3′,5′-difluoro-4′-((methoxyimino)methyl)-[1,1′-biphenyl]-2-yl)-3-(difluoromethyl)-1-methyl-1H-pyrazole-4-carboxamide] reads 1 (Control value 10-29%).
Turning to `CON=Cc1c(F)cc(-c2ccccc2NC(=O)c2sccc2C)cc1F` [Compound 1, N-(3′,5′-difluoro-4′-((methoxyimino)methyl)-[1,1′-biphenyl]-2-yl)-3-methylthiophene-2-carboxamide], the control value criterion in test [2] and in test [3] was 5 (Control value 90-100%) each time. Further, the “Activity (control value criterion)” value in test [1] is reported as 5 (Control value 90-100%).
